Experimental data from PubChem BioAssay AID248 (DTP/NCI, 2004).
Inconclusive results and toxic doses are left out. Rule as the data show it: active = T/C of 150% or more; inactive = T/C below 125%.

Tested on: L1210 leukemia ip in BDF1 mice, survival T/C
Assay: NCI In Vivo Anticancer Drug Screen. Data for tumor model L1210 Leukemia (intraperitoneal) in B6D2F1 (BDF1) mice
Details: endpoint: mean survival time, higher = longer survival
Method in brief: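 Antitumor effect is assessed in tumor-bearing animals. Survival in the compound arm is compared with a vehicle-dosed control arm and expressed as their quotient.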

[1] = dose: 50.0 mg/kg/injection, schedule: Q01DX001 (ip), vehicle: carboxymethylcellulose (CMC)
[2] = dose: 100.0 mg/kg/injection, schedule: Q01DX001 (ip), vehicle: carboxymethylcellulose (CMC)
[3] = dose: 200.0 mg/kg/injection, schedule: Q01DX001 (ip), vehicle: carboxymethylcellulose (CMC)
[4] = dose: 400.0 mg/kg/injection, schedule: Q01DX001 (ip), vehicle: carboxymethylcellulose (CMC)
[5] = dose: 150.0 mg/kg/injection, schedule: Q01DX001 (ip), vehicle: saline
[6] = dose: 200.0 mg/kg/injection, schedule: Q01DX001 (ip), vehicle: saline
[7] = dose: 400.0 mg/kg/injection, schedule: Q01DX001 (ip), vehicle: saline
[8] = dose: 100.0 mg/kg/injection, schedule: Q04DX003 (ip), vehicle: saline
[9] = dose: 200.0 mg/kg/injection, schedule: Q04DX003 (ip), vehicle: saline
[10] = dose: 400.0 mg/kg/injection, schedule: Q04DX003 (ip), vehicle: saline
[11] = dose: 50.0 mg/kg/injection, schedule: Q01DX009 (ip), vehicle: Klucel (hydroxypropylcellulose) (HPC)
[12] = dose: 100.0 mg/kg/injection, schedule: Q01DX009 (ip), vehicle: Klucel (hydroxypropylcellulose) (HPC)
[13] = dose: 200.0 mg/kg/injection, schedule: Q01DX009 (ip), vehicle: Klucel (hydroxypropylcellulose) (HPC)
[14] = dose: 100.0 mg/kg/injection, schedule: Q04DX003 (ip), vehicle: Klucel (hydroxypropylcellulose) (HPC)
[15] = dose: 200.0 mg/kg/injection, schedule: Q04DX003 (ip), vehicle: Klucel (hydroxypropylcellulose) (HPC)
[16] = dose: 400.0 mg/kg/injection, schedule: Q01DX009 (ip), vehicle: Klucel (hydroxypropylcellulose) (HPC)
[17] = dose: 400.0 mg/kg/injection, schedule: Q04DX003 (ip), vehicle: Klucel (hydroxypropylcellulose) (HPC)
[18] = dose: 50.0 mg/kg/injection, schedule: Q01DX009 (ip), vehicle: saline with Tween-80
[19] = dose: 100.0 mg/kg/injection, schedule: Q01DX009 (ip), vehicle: saline with Tween-80
[20] = dose: 100.0 mg/kg/injection, schedule: Q04DX003 (ip), vehicle: saline with Tween-80
[21] = dose: 200.0 mg/kg/injection, schedule: Q01DX009 (ip), vehicle: saline with Tween-80
[22] = dose: 200.0 mg/kg/injection, schedule: Q04DX003 (ip), vehicle: saline with Tween-80
[23] = dose: 100.0 mg/kg/injection, schedule: Q04DX002 (ip), vehicle: Klucel (hydroxypropylcellulose) (HPC)
[24] = dose: 100.0 mg/kg/injection, schedule: Q01DX001 (ip), vehicle: saline

Measured: T/C

Nc1ccc([N+](=O)[O-])c2ccccc12
inactive: [1] 87 % of control | [2] 93 % of control | [3] 98 % of control | [4] 87 % of control

OC1C2C=CC(C2)C1O (stereo not drawn)
inactive: dose: 44.0 mg/kg/injection, schedule: Q01DX001 (ip), vehicle: saline 96 % of control | dose: 66.0 mg/kg/injection, schedule: Q01DX001 (ip), vehicle: saline 100 % of control | [5] 94 % of control | [6] 106 % of control | [7] 100 % of control

Cc1ccc([N+](=O)[O-])cc1/C=C/C(=O)O
inactive: [8] 106 % of control | [9] 93 % of control | [10] 104 % of control

O=C1CCC2c3ccccc3C(=O)C2C1 (stereo not drawn)
inactive: [11] 100 % of control | [12] 100 % of control | [13] 98 % of control

Cc1cc(OC(=O)c2ccccc2)cc(C)c1OC(=O)c1ccccc1
inactive: dose: 100.0 mg/kg/injection, schedule: Q04DX002 (ip), vehicle: saline with Tween-80 96 % of control | dose: 200.0 mg/kg/injection, schedule: Q04DX002 (ip), vehicle: saline with Tween-80 100 % of control | dose: 400.0 mg/kg/injection, schedule: Q04DX002 (ip), vehicle: saline with Tween-80 96 % of control

O=C(NCCCCc1ccccc1)c1ccccc1
inactive: [12] 102 % of control | [14] 95 % of control | [13] 109 % of control | [15] 105 % of control | [16] 106 % of control | [17] 95 % of control

O=C(CCN1CC1)Nc1ccccc1
inactive: dose: 3.12 mg/kg/injection, schedule: Q01DX009 (ip), vehicle: Klucel (hydroxypropylcellulose) (HPC) 110 % of control | dose: 6.25 mg/kg/injection, schedule: Q01DX009 (ip), vehicle: Klucel (hydroxypropylcellulose) (HPC) 108 % of control | dose: 12.5 mg/kg/injection, schedule: Q01DX009 (ip), vehicle: Klucel (hydroxypropylcellulose) (HPC) 106 % of control | dose: 12.5 mg/kg/injection, schedule: Q04DX003 (ip), vehicle: Klucel (hydroxypropylcellulose) (HPC) 107 % of control | dose: 25.0 mg/kg/injection, schedule: Q01DX009 (ip), vehicle: Klucel (hydroxypropylcellulose) (HPC) 106 % of control | dose: 25.0 mg/kg/injection, schedule: Q04DX003 (ip), vehicle: Klucel (hydroxypropylcellulose) (HPC) 91 % of control | [11] 102 % of control | dose: 50.0 mg/kg/injection, schedule: Q04DX003 (ip), vehicle: Klucel (hydroxypropylcellulose) (HPC) 95 % of control | [8] 91 % of control

OCc1ccc(Cl)cc1Cl
inactive: [18] 107 % of control | [19] 103 % of control | [20] 100 % of control | [21] 103 % of control | [22] 105 % of control | dose: 400.0 mg/kg/injection, schedule: Q04DX003 (ip), vehicle: saline with Tween-80 102 % of control

CCC(=O)OC1(c2ccccc2)CCN(CCC(O)c2ccco2)CC1 (stereo not drawn)
inactive: dose: 40.0 mg/kg/injection, schedule: Q01DX009 (ip), vehicle: Klucel (hydroxypropylcellulose) (HPC) 97 % of control | dose: 80.0 mg/kg/injection, schedule: Q01DX009 (ip), vehicle: Klucel (hydroxypropylcellulose) (HPC) 98 % of control | dose: 160.0 mg/kg/injection, schedule: Q01DX009 (ip), vehicle: Klucel (hydroxypropylcellulose) (HPC) 98 % of control

O=CNC1(CO)CCCCC1
inactive: dose: 75.0 mg/kg/injection, schedule: Q01DX001 (ip), vehicle: saline 105 % of control | [5] 102 % of control | dose: 300.0 mg/kg/injection, schedule: Q01DX001 (ip), vehicle: saline 96 % of control

O=C(Nc1ccc(F)cc1)OCCOc1ccc(Cl)cc1Cl
inactive: [12] 105 % of control | [13] 110 % of control | [16] 109 % of control

COCC(C)CNC(=S)Nc1ccccc1 (stereo not drawn)
inactive: [1] 108 % of control | [2] 103 % of control | [3] 103 % of control | [4] 105 % of control

ClC1=C(Cl)C(Cl)(Cl)SS1
inactive: dose: 9.5 mg/kg/injection, schedule: Q01DX001 (ip), vehicle: other 100 % of control | dose: 10.0 mg/kg/injection, schedule: Q04DX003 (ip), vehicle: other 100 % of control | dose: 19.0 mg/kg/injection, schedule: Q01DX001 (ip), vehicle: other 103 % of control | dose: 20.0 mg/kg/injection, schedule: Q04DX003 (ip), vehicle: other 92 % of control | dose: 38.0 mg/kg/injection, schedule: Q01DX001 (ip), vehicle: other 91 % of control | dose: 40.0 mg/kg/injection, schedule: Q04DX003 (ip), vehicle: other 89 % of control | dose: 75.0 mg/kg/injection, schedule: Q01DX001 (ip), vehicle: other 93 % of control

Cc1ccc(S(=O)(=O)OC(C(F)(F)F)C(F)(F)F)cc1
inactive: [23] 97 % of control | dose: 200.0 mg/kg/injection, schedule: Q04DX002 (ip), vehicle: Klucel (hydroxypropylcellulose) (HPC) 90 % of control | dose: 400.0 mg/kg/injection, schedule: Q04DX002 (ip), vehicle: Klucel (hydroxypropylcellulose) (HPC) 101 % of control

NC(=O)C(F)(F)c1ccccc1
inactive: [24] 105 % of control | [6] 103 % of control | [7] 102 % of control

CN(c1ccccc1)S(=O)(=O)c1ccc(N)cc1
inactive: dose: 100.0 mg/kg/injection, schedule: Q01DX001 (ip), vehicle: Klucel (hydroxypropylcellulose) (HPC) 96 % of control | dose: 200.0 mg/kg/injection, schedule: Q01DX001 (ip), vehicle: Klucel (hydroxypropylcellulose) (HPC) 104 % of control | dose: 400.0 mg/kg/injection, schedule: Q01DX001 (ip), vehicle: Klucel (hydroxypropylcellulose) (HPC) 102 % of control

O=C(O)CNc1cc(S(=O)(=O)O)cc2cc(S(=O)(=O)O)cc(O)c12
inactive: [24] 103 % of control | [8] 103 % of control | [6] 107 % of control | [9] 90 % of control | [7] 96 % of control | [10] 92 % of control

COc1ccc(C(=O)c2ccccc2)c(OC(=O)Nc2ccc(Cl)cc2)c1
inactive: [12] 109 % of control | [13] 105 % of control | [16] 100 % of control

Cc1ccc(NC(=O)c2ccccc2)cc1Cl
inactive: [12] 98 % of control | [14] 106 % of control | [13] 95 % of control | [15] 101 % of control | [16] 96 % of control | [17] 97 % of control

Cc1ccc(S(=O)(=O)OC2C(C3CSC(=O)O3)OC3OC(C)(C)OC32)cc1 (stereo not drawn)
inactive: dose: 25.0 mg/kg/injection, schedule: Q04DX002 (ip), vehicle: Klucel (hydroxypropylcellulose) (HPC) 103 % of control | dose: 50.0 mg/kg/injection, schedule: Q04DX002 (ip), vehicle: Klucel (hydroxypropylcellulose) (HPC) 100 % of control | [23] 97 % of control

O=Cc1cccc(CC(O)(C(F)(F)F)C(F)(F)F)n1
inactive: dose: 25.0 mg/kg/injection, schedule: Q01DX009 (ip), vehicle: saline with Tween-80 101 % of control | [18] 101 % of control | dose: 50.0 mg/kg/injection, schedule: Q04DX003 (ip), vehicle: saline with Tween-80 91 % of control | [20] 91 % of control | [22] 104 % of control

CC(C)C(=O)NN
inactive: [8] 98 % of control | [9] 101 % of control | [10] 101 % of control

COc1cccc(/C=C/C(=O)C2CCCCC2)c1
inactive: [18] 101 % of control | [19] 97 % of control | [21] 101 % of control

NC(N)=NC1CCCCC1
inactive: [8] 102 % of control | [9] 112 % of control

CCN(CC)CCOC(=O)c1cc2ccccc2s1
inactive: [24] 94 % of control | [6] 102 % of control | [7] 96 % of control

CCN(CCNC(C)(C)[P+](=O)O)c1ccccc1
inactive: dose: 75.0 mg/kg/injection, schedule: Q04DX003 (ip), vehicle: Klucel (hydroxypropylcellulose) (HPC) 100 % of control | [24] 105 % of control | dose: 150.0 mg/kg/injection, schedule: Q04DX003 (ip), vehicle: Klucel (hydroxypropylcellulose) (HPC) 96 % of control | [6] 105 % of control | dose: 300.0 mg/kg/injection, schedule: Q04DX003 (ip), vehicle: Klucel (hydroxypropylcellulose) (HPC) 110 % of control | [7] 102 % of control
